Values after ≈ are worked out from the molar mass of the structure shown. Active and inactive are the calls of the source. The rule behind the calls is not given here.
How the values were obtained:
[1] = test system: Mycobacterium tuberculosis; assay: In vitro antibacterial activity against Mycobacterium tuberculosis 103471; assay type: functional
Mycobacterium marinum = assay: In vitro antibacterial activity against Mycobacterium marinum 6423; assay type: functional
Mycobacterium gordonae [2] = assay: In vitro antibacterial activity against Mycobacterium gordonae 6427; assay type: functional
Vero = assay: In vitro cytotoxicity against vero cells; assay type: functional, Chlorocebus sabaeus
[3] = test system: Mycolicibacterium smegmatis; assay: In vitro antibacterial activity against Mycobacterium smegmatis 103599; assay type: functional
Mycobacterium avium = assay: In vitro antibacterial activity against Mycobacterium avium 103317; assay type: functional
Candida albicans = assay: Compound was tested for activity against Candida albicans; Inactive; assay type: functional, organism-based
Candida = assay: Compound was tested for activity against Candida sp; Inactive; assay type: functional, organism-based
Mycobacterium gordonae [4] = assay: In vitro antibacterial activity agains Mycobacterium gordonae 6427; assay type: functional

## CN[C@@H]1[C@H](O[C@H]2[C@H](O[C@H]3[C@H](O)[C@@H](O)[C@H](N=C(N)N)[C@@H](O)[C@@H]3N=C(N)N)O[C@@H](C)[C@]2(O)C=O)O[C@@H](CO)[C@H](O)[C@H]1O [STREPTOMYCIN]
[1]
  MIC: 0.5 µg/mL (≈ 0.86 µM)
Mycobacterium marinum
  MIC: 32 µg/mL (≈ 55 µM)
Mycobacterium gordonae [2]
  MIC: 16 µg/mL (≈ 27.5 µM)
Vero
  MTD50: >64 µg/mL
[3]
  MIC: 8 µg/mL (≈ 13.8 µM)
Mycobacterium avium
  MIC: 8 µg/mL (≈ 13.8 µM)

## Cc1c(CN2CCSCC2)cc(-c2ccc(Cl)cc2)n1-c1ccccc1
[1]
  MIC: 2 µg/mL (≈ 5.22 µM)
Mycobacterium marinum
  MIC: > 16 µg/mL
Mycobacterium gordonae [2]
  MIC: > 16 µg/mL
Vero
  MTD50: 4 µg/mL
Candida albicans
  MIC: inactive
Candida
  MIC: inactive
[3]
  MIC: > 16 µg/mL
Mycobacterium avium
  MIC: > 16 µg/mL

## Cc1c(CN2CCN(C)CC2)cc(-c2ccccc2)n1-c1ccc(Cl)cc1
[1]
  MIC: 4 µg/mL (≈ 10.5 µM)
Mycobacterium marinum
  MIC: 1 µg/mL (≈ 2.63 µM)
Mycobacterium gordonae [2]
  MIC: 8 µg/mL (≈ 21.1 µM)
Vero
  MTD50: 4 µg/mL
Candida albicans
  MIC: inactive
Candida
  MIC: inactive
[3]
  MIC: 8 µg/mL (≈ 21.1 µM)
Mycobacterium avium
  MIC: 16 µg/mL (≈ 42.1 µM)

## Cc1c(CN2CCSCC2)cc(-c2ccccc2)n1-c1ccc(Cl)cc1
[1]
  MIC: 2 µg/mL (≈ 5.22 µM)
Mycobacterium marinum
  MIC: 8 µg/mL (≈ 20.9 µM)
Mycobacterium gordonae [2]
  MIC: > 16 µg/mL
Vero
  MTD50: 8 µg/mL
Candida albicans
  MIC: inactive
Candida
  MIC: inactive
[3]
  MIC: 16 µg/mL (≈ 41.8 µM)
Mycobacterium avium
  MIC: 16 µg/mL (≈ 41.8 µM)

## NNC(=O)c1ccncc1 [ISONIAZID]
[1]
  MIC: 0.25 µg/mL (≈ 1.82 µM)
Mycobacterium marinum
  MIC: 16 µg/mL (≈ 117 µM)
Mycobacterium gordonae [2]
  MIC: 32 µg/mL (≈ 233 µM)
Vero
  MTD50: 32 µg/mL
[3]
  MIC: 64 µg/mL (≈ 467 µM)
Mycobacterium avium
  MIC: 32 µg/mL (≈ 233 µM)

## Cc1c(CN2CCN(C)CC2)cc(-c2ccc(Cl)cc2)n1-c1ccc(Cl)cc1
[1]
  MIC: 0.7 µg/mL (≈ 1.69 µM)
Mycobacterium marinum
  MIC: 100 µg/mL (≈ 241 µM)
Vero
  MTD50: 4 µg/mL
Mycobacterium gordonae [4]
  MIC: > 100 µg/mL
[3]
  MIC: 25 µg/mL (≈ 60.3 µM)
Mycobacterium avium
  MIC: 0.4 µg/mL (≈ 0.965 µM)

## CO[C@H]1/C=C/O[C@@]2(C)Oc3c(C)c(O)c4c(O)c(c(/C=N/N5CCN(C)CC5)c(O)c4c3C2=O)NC(=O)/C(C)=C\C=C\[C@H](C)[C@H](O)[C@@H](C)[C@@H](O)[C@@H](C)[C@H](OC(C)=O)[C@@H]1C [RIFAMPIN]
[1]
  MIC: 0.3 µg/mL (≈ 0.365 µM)
Mycobacterium marinum
  MIC: 0.6 µg/mL (≈ 0.729 µM)
Mycobacterium gordonae [2]
  MIC: 0.6 µg/mL (≈ 0.729 µM)
Vero
  MTD50: 64 µg/mL
[3]
  MIC: 32 µg/mL (≈ 38.9 µM)
Mycobacterium avium
  MIC: 0.3 µg/mL (≈ 0.365 µM)

## Cc1c(CN2CCN(C)CC2)cc(-c2ccc(Cl)cc2)n1-c1ccccc1
[1]
  MIC: 4 µg/mL (≈ 10.5 µM)
Mycobacterium marinum
  MIC: 16 µg/mL (≈ 42.1 µM)
Mycobacterium gordonae [2]
  MIC: 16 µg/mL (≈ 42.1 µM)
Vero
  MTD50: 4 µg/mL
Candida albicans
  MIC: inactive
Candida
  MIC: inactive
[3]
  MIC: 8 µg/mL (≈ 21.1 µM)
Mycobacterium avium
  MIC: 16 µg/mL (≈ 42.1 µM)

## Cc1c(CN2CCSCC2)cc(-c2ccc(Cl)cc2)n1-c1ccc(Cl)cc1
[1]
  MIC: 4 µg/mL (≈ 9.58 µM)
Mycobacterium marinum
  MIC: > 16 µg/mL
Mycobacterium gordonae [2]
  MIC: > 16 µg/mL
Vero
  MTD50: 32 µg/mL
Candida albicans
  MIC: inactive
Candida
  MIC: inactive
[3]
  MIC: > 16 µg/mL
Mycobacterium avium
  MIC: > 16 µg/mL

From ChEMBL document CHEMBL1132675, “New pyrrole derivatives as antimycobacterial agents analogs of BM212” (1999)
